Measured values taken from the supplement of paper PMC10331698.
± gives the standard deviation of the averaged measurements.

Compound: NS(=O)(=O)C(F)(F)C(F)(F)C(F)(F)C(F)(F)C(F)(F)C(F)(F)C(F)(F)C(F)(F)F [Perfluorooctanesulfonamide] (in DMSO)
Experiment: level (log10 ratio to DMSO vehicle control); higher = higher biomarker level / cell amount than vehicle control
Procedure: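 BioMAP Diversity Plus panel of 12 human primary cell co-culture systems (3C, 4H, LPS, SAg, BT, BF4T, BE3C, CASM3C, HDF3CGF, KF3CT, MyoF, Mphg). Compounds were added 1 h before stimulation and left for 24 h (MyoF 48 h; BT 72 h for soluble read-outs or 6 d for IgG). Biomarkers were read by ELISA, cytotoxicity by SRB, PBMC viability and proliferation by Alamar Blue. Each well value was divided by the mean of 8 DMSO control wells on the same plate and log10 transformed; duplicate blinded samples were tested at 4 concentrations.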

Test System	level (log10) (6700 nM)	level (log10) (20000 nM)
3C:CCL2/MCP-1	-0.0015 ± 0.0021	0.085 ± 0.0057
3C:CD54/ICAM-1	-0.0005 ± 0.005	0.002 ± 0.011
3C:CD62E/E-Selectin	-0.006 ± 0.02	0.043 ± 0.011
3C:CD106/VCAM-1	-0.0005 ± 0.012	0.003 ± 0.013
3C:CD141/Thrombomodulin	0.018 ± 0.0099	0.107 ± 0.0014
3C:CD142/Tissue Factor	-0.05 ± 0.017	-0.033 ± 0.031
BE3C:Keratin 8/18	-0.0475 ± 0.013	-0.0185 ± 0.0021
BE3C:MMP-1	0.084 ± 0.021	0.154 ± 0.014
BE3C:MMP-9	-0.101 ± 0.016	-0.131 ± 0.0014
BE3C:PAI-I	-0.194 ± 0.03	-0.202 ± 0.016
BE3C:SRB	-0.0145 ± 0.0021	-0.0315 ± 0.00071
BE3C:tPA	0.0025 ± 0.035	-0.058 ± 0.055
BE3C:uPA	-0.0065 ± 0.013	0.0145 ± 0.0064
CASM3C:CCL2/MCP-1	0.01 ± 0.013	0.01 ± 0.023
CASM3C:CD87/uPAR	-0.007 ± 0.031	-0.0055 ± 0.026
CASM3C:CD106/VCAM-1	-0.0185 ± 0.0021	-0.0405 ± 0.037
CASM3C:CD141/Thrombomodulin	0 ± 0.0085	0.0505 ± 0.0078
CASM3C:CD142/Tissue Factor	0.021 ± 0.011	0.082 ± 0.04
CASM3C:CXCL8/IL-8	-0.0055 ± 0.0035	-0.0125 ± 0.0035
CASM3C:CXCL9/MIG	-0.0005 ± 0.011	-0.0305 ± 0.022
CASM3C:HLA-DR	-0.0045 ± 0.012	-0.004 ± 0.0085
CASM3C:IL-6	-0.0275 ± 0.018	-0.023 ± 0.014
CASM3C:LDLR	-0.0095 ± 0.011	-0.0165 ± 0.0078
CASM3C:M-CSF	0.022	0.04 ± 0.0099
CASM3C:PAI-I	0.012 ± 0.0057	0.0055 ± 0.011
CASM3C:Proliferation	-0.027 ± 0.0085	0.0415 ± 0.032
CASM3C:SRB	0.0075 ± 0.011	-0.0075 ± 0.0021

Test System	level (log10) (6700 nM)	level (log10) (20000 nM)
CASM3C:Serum Amyloid A	0.0055 ± 0.028	0.012 ± 0.047
HDF3CGF:CCL2/MCP-1	-0.0105 ± 0.0064	-0.567 ± 0.14
HDF3CGF:CD54/ICAM-1	-0.021 ± 0.0042	-0.88 ± 0.26
HDF3CGF:CD106/VCAM-1	-0.147 ± 0.027	-0.364 ± 0.023
HDF3CGF:CXCL8/IL-8	0.004 ± 0.0085	-0.204 ± 0.11
HDF3CGF:CXCL9/MIG	-0.203 ± 0.011	-0.761 ± 0.11
HDF3CGF:CXCL10/IP-10	-0.216 ± 0.011	-0.893 ± 0.047
HDF3CGF:CXCL11/I-TAC	-0.111 ± 0.013	-0.492 ± 0.028
HDF3CGF:Collagen I	0.08 ± 0.037	-0.0535 ± 0.046
HDF3CGF:Collagen III	-0.0345 ± 0.012	-0.449 ± 0.019
HDF3CGF:EGFR	-0.016 ± 0.014	-0.171 ± 0.016
HDF3CGF:M-CSF	-0.0605 ± 0.012	-0.507 ± 0.07
HDF3CGF:MMP-1	0.0145 ± 0.026	-0.206 ± 0.096
HDF3CGF:PAI-I	0.005 ± 0.033	-0.45 ± 0.26
HDF3CGF:Proliferation 72hr	0.0105 ± 0.036	-0.58 ± 0.15
HDF3CGF:SRB	-0.028 ± 0.055	0.0615 ± 0.019
HDF3CGF:TIMP-1	0.065 ± 0.068	-0.138 ± 0.15
HDF3CGF:TIMP-2	-0.0545 ± 0.0021	-0.102 ± 0.044
KF3CT:CCL2/MCP-1	0.025 ± 0.016	0.116 ± 0.037
KF3CT:CD54/ICAM-1	0.0155 ± 0.023	-0.0235 ± 0.028
KF3CT:CXCL8/IL-8	-0.0135 ± 0.021	-0.0525 ± 0.018
KF3CT:CXCL9/MIG	0.0075 ± 0.0035	-0.032 ± 0.034
KF3CT:CXCL10/IP-10	-0.021 ± 0.0028	-0.205 ± 0.0092
KF3CT:IL-1alpha	0.074 ± 0.0042	-0.056 ± 0.02
KF3CT:MMP-9	0.0365 ± 0.026	-0.274 ± 0.023
KF3CT:PAI-I	0.03 ± 0.027	-0.108 ± 0.054
KF3CT:SRB	-0.0035 ± 0.015	-0.0455 ± 0.029

Test System	level (log10) (6700 nM)	level (log10) (20000 nM)
KF3CT:TIMP-2	-0.0275 ± 0.012	-0.06 ± 0.021
KF3CT:uPA	0.0165 ± 0.0064	-0.093 ± 0.0014
MyoF:CD106/VCAM-1	-0.005 ± 0.023	-0.293 ± 0.088
MyoF:CXCL8/IL-8	-0.04 ± 0.031	-0.013 ± 0.0085
MyoF:Collagen I	-0.018 ± 0.014	-0.236 ± 0.0028
MyoF:Collagen III	-0.014 ± 0.0099	-0.242 ± 0.023
MyoF:Collagen IV	0.118 ± 0.015	0.28 ± 0.028
MyoF:Decorin	0.0265 ± 0.053	0.031 ± 0.037
MyoF:MMP-1	-0.038 ± 0.013	0.0955 ± 0.04
MyoF:PAI-I	0.0135 ± 0.019	0.006 ± 0.0071
MyoF:SRB	-0.0135 ± 0.0035	-0.136 ± 0.0021
MyoF:TIMP-1	-0.007 ± 0.027	-0.098 ± 0.018
MyoF:alpha-SM Actin	-0.0355 ± 0.037	-0.63 ± 0.1
MyoF:bFGF	0.0115 ± 0.00071	-0.0145 ± 0.0021
lMphg:CCL2/MCP-1	-0.032 ± 0.016	-0.0485 ± 0.046
lMphg:CCL3/MIP-1alpha	-0.003 ± 0.016	0.023 ± 0.0099
lMphg:CD40	-0.0365 ± 0.016	-0.0925 ± 0.0092
lMphg:CD62E/E-Selectin	-0.118 ± 0.041	-0.125 ± 0.0057
lMphg:CD69	-0.0435 ± 0.052	-0.11 ± 0.037
lMphg:CD106/VCAM-1	0.006 ± 0.014	0.0365 ± 0.0021
lMphg:CXCL8/IL-8	0.004 ± 0.0042	0.124 ± 0.019
lMphg:IL-1alpha	0.053 ± 0.05	0.228 ± 0.028
lMphg:M-CSF	-0.0445 ± 0.0092	-0.029 ± 0.021
lMphg:SRB	-0.013	-0.052 ± 0.0085
lMphg:SRB-Mphg	-0.0005 ± 0.0064	-0.027 ± 0.016
lMphg:sIL-10	-0.068 ± 0.021	-0.169 ± 0.025
